For data set [1], the system named is Caco-2 (human epithelial colorectal adenocarcinoma) cell line. Kind of data set: MTT toxicity assay against Caco-2 cells. Type of data set: cell-based. The method, then: (§1) BHK (baby hamster kidney); Caco-2 (heterogeneous human epithelial colorectal adenocarcinoma); and Hep-G2 (liver carcinoma). All cell lines were cultured in 75 mL culture flasks in DMEM culture media (Dulbecco's Modified Eagle's Medium, Gibco, Thermo Fisher, UK) supplemented with 10% fetal bovine serum (Gibco, Thermo Fisher, UK), 1% MEM Non-Essential Amino Acid (Sigma, UK) and 1% penicillin-streptomycin (Sigma) at 37°C in an atmosphere of 5% humidified CO2. Cells used in the study were in the logarithmic growth phase, and unless stated were grown to 70% confluence, and then trypsinized with 0.5% trypsin-EDTA (Gibco, Canada) for detachment and use in the assays. […] The cells were cultured in 96-well microtiter plates containing the respective media to a cell density of 3,000 per well at 37°C in an atmosphere of air containing 5% CO2. Cell viability was assessed after continuous exposure to various concentrations of drugs (ranging from 0.5 to 400 μM) for 24 and 48 h. […] The amount of MTT reduced to formazan within the cells was quantified by measuring the absorbance at λ = 570 nm using a Fluostar Galaxy Microplate Reader. The average values presented are based on at least three independent experiments. The IC50 values were determined using GraphPad Prism 7.0 (GraphPad Software, San Diego, USA).
(In general: Tetrazolium assays rely on reduction of a dye to a coloured formazan, in cell work by metabolically active cells.)

The test system of data set [2] is Hep-G2 (human hepatocellular carcinoma) cell line. Kind of data set: MTT toxicity assay against Hep-G2 cells. Format: cell-based. How it is done: as §1, with “h. Cisplatin served as a treatment evaluation standard.” for “h.”
Data set [3] relates to BHK (baby hamster kidney) cell line. In words: MTT toxicity assay against BHK cells. Type of data set: cell-based. How it is done:
as §1, with “h. Cisplatin served as a treatment evaluation standard.” for “h.”

The target in data set [4] is T1, human serum albumin (HSA) (Homo sapiens, UniProt P02768).
T1 construct: purchased Sigma-Aldrich
T1 sequence (P02768 25-609): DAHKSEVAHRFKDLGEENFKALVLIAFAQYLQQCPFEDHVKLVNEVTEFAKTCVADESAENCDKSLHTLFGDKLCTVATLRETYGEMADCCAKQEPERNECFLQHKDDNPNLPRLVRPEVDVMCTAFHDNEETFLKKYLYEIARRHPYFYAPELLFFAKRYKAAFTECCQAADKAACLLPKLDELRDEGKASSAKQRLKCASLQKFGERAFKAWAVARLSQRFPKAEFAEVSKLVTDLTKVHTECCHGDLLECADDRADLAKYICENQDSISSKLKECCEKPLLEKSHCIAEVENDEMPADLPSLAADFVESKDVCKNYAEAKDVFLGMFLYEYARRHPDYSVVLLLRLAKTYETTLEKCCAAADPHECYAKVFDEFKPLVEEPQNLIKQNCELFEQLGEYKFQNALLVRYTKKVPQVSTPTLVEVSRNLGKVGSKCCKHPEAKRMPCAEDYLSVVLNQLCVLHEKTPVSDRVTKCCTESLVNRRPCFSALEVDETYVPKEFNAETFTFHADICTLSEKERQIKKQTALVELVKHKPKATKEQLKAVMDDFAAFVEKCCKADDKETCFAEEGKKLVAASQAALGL
In words: HSA binding by tryptophan fluorescence quenching. The following applies: for Kapp (apparent HSA binding constant) / binding number n for HSA binding: [Ru complex]/[HSA] ratio 0 to 2.4, 0.1 M sodium phosphate pH 7.4. How it is done: All solutions used in the protein binding studies were dissolved in a 0.1 M sodium phosphate buffer (pH = 7.4). Protein solutions (5 μM) were titrated with the ruthenium complexes from 2 mM stock solutions, from a metal complex/protein ratio of 0.0 to 8.0. […] All experiments were carried out in triplicate, with results presented as mean and standard deviation.
The static quenching via binding of the ruthenium complexes to HSA can be represented as: nRu+HSA→nRu⋯ HSA where nRu…HSA denotes the quenched ruthenium complex/HSA species. A double-logarithm equation of log10[(F0-F)/F] vs. log10[Ru] can then be used to express the equilibrium between the free and bound ruthenium(II) complex to determine the apparent binding constant (Kapp) and the binding number (n) (Krause-Heuer et al., [2012]). log [F0-F/F]=log10Kapp+nlog10[Ru]
It was not possible to determine a single apparent HSA binding constant, as a linear relationship was not observed over the entire concentration range of added ruthenium complex in the plot of log10[(F0 – F)/F] vs. log10[Ru]. However, two distinct linear sections could be found in the analysis of the double logarithm, corresponding to ruthenium complex to HSA ratios of (a) 0 to 2.4 and (b) 2.4 to 8. As previously observed (Li et al., [2013b]), the two binding ratio regions represent an initial 1:1 binding at low ruthenium complex concentration (ratios 0–2.4), and then upon addition of further ruthenium complex, a region (2.4–8) where multiple ruthenium complexes (≥ 2:1) are bound to HSA. The higher affinity 1:1 HSA binding constant Kapp and the binding numbers n for the ruthenium complexes determined at low ratios of added ruthenium complex are summarized in Table 2.

Data set [5] has as its target T1, human serum albumin (HSA). More on the design: method as in Li et al., 2013b. The settings on record: ref Li et al., 2013b; cited from earlier work.
Details of data set [6]: method as in Li et al., 2017. The settings on record: mice, ref Li et al., 2017; cited from earlier work.
The test system of data set [7] is eukaryotic cells (BHK, Hep-G2, Caco-2). In words: Toxicity to the panel of eukaryotic cell lines (comparisons). Type of data set: cell-based. How it is done: as §1, with “h. Cisplatin served as a treatment evaluation standard.” for “h.”
In data set [8] the test system is Gram-positive and Gram-negative bacteria. The following applies: 2018, cited from earlier work; for MIC: Gram-positive and Gram-negative bacteria, ref Gorle et al., 2015, Sun et al.
The next data set has as its system BHK cells. Kind of data set: Confocal microscopy of cellular accumulation in BHK cells. Format: cell-based, hamster. How it is done:
The trypsinized BHK cells were seeded on sterile, poly L-lysine coated, coverslips in a 24-well plate. The ruthenium complex was applied to the cells in growth media to make the desired concentration (25 μM) and incubated at 37°C with 5% CO2 for 1 h. Following the incubation, 100 nM Mitotracker® Green FM (Invitrogen) was added for mitochondrial staining. Staining was carried out in DMEM medium under standard cultivation conditions as per the manufacturer's instructions. Following staining, the coverslips were gently rinsed with phosphate buffer solution (PBS, pH = 7.1) prior to confocal laser scanning microscopy.
The cellular accumulation of the ruthenium complex was determined using a laser scanning confocal microscope (FV3000, Olympus). Samples were viewed under 60× silicone immersion using the following excitation (λex) and emission (λem) wavelengths. Ruthenium complex (λex = 450 nm, λem = 630 nm) and Mitotracker Green FM (λex = 490 nm, λem = 516 nm) were excited using a blue argon laser (λex = 488 nm), and emissions were collected at λ = 600–650 nm for the ruthenium complex and λ = 500–550 nm for Mitotracker Green. […] The luminescence intensity of cis-α-[Ru(Me4phen)(bb7)]^2+ inside the BHK cells was quantified using the surface rendering function of Imaris 9.2.1 software, and the data analyzed for statistical difference using the Wilcoxon-test and t-test methods.

On the set-up of data set [9]: method as in Sun et al., 2018. The following applies: ref Sun et al., 2018; cited from earlier work.
[10] abbreviates: 24-h incubation, read-out: IC50 Caco-2 24 h.
Where [11] appears, read: 48-h incubation, read-out: IC50 Caco-2 48 h.
Where [12] appears, read: 24-h incubation, read-out: IC50 Hep-G2 24 h.
Where [13] appears, read: 48-h incubation, read-out: IC50 Hep-G2 48 h.
Setting [14] is: 24-h incubation, read-out: IC50 BHK 24 h.
The mark [15] stands for this setting: 48-h incubation, read-out: IC50 BHK 48 h.

Read-outs that look alike come from different tables or passages of the source.

Usually IC50 stands for the concentration at which inhibition is half-maximal. By MIC is commonly meant the lowest concentration found to suppress growth. As usually defined, the log P is the decadic logarithm of the partition coefficient of the neutral form, usually between octanol and water.

For the molecule `Cc1cnc2c(ccc3c(C)c(C)cnc32)c1C.Cc1cnc2c(ccc3c(C)c(C)cnc32)c1C.Cc1cnc2c(ccc3c(C)c(C)cnc32)c1C.[Ru+2]` [(Me4phen)3, [Ru(Me4phen)3]^2+, reference compound], the IC50 in [1] (setting [10]) came out at 220 ± 43 µM; in data set [1] (setting [11]) it was 265 ± 13 µM; in [2] (setting [12]), 253 ± 60 µM; in data set [2] (setting [13]) it was 72 ± 31 µM; in data set [3] (setting [14]), 157 ± 25 µM; in data set [3] (setting [15]), 111 ± 23 µM. Also, in data set [4], the “Kapp (apparent HSA binding constant)” value was 0.12 ± 0.03 × 10^5 (M)^−1. Also, the “binding number n for HSA binding” value in data set [4] was 0.81.
In the case of `N.N.[Cl][Pt][Cl]` [Cisplatin, reference compound], the IC50 was 314 ± 8 µM in [2] (setting [12]), 12 ± 3 µM in data set [2] (setting [13]), over 400 µM in data set [3] (setting [14]) and 146 ± 8 µM in data set [3] (setting [15]).
For the molecule `Cc1ccnc(-c2cc(CCCCCCCCCCCCc3ccnc(-c4cc(C)ccn4)c3)ccn2)c1.[Ru+2].[Ru+2].c1cnc2c(c1)ccc1cccnc12.c1cnc2c(c1)ccc1cccnc12.c1cnc2c(c1)ccc1cccnc12.c1cnc2c(c1)ccc1cccnc12` [Rubb12, [{Ru(phen)2}2{μ-bb12}]^4+, reference compound], the IC50 in data set [1] (setting [10]) was 10 ± 1 µM; in data set [1] (setting [11]), 8 ± 3 µM; in data set [2] (setting [12]) it was 55 ± 12 µM; in [2] (setting [13]), 15 ± 5 µM; in data set [3] (setting [14]), 44 ± 9 µM; in [3] (setting [15]), 41 ± 7 µM. The “Kapp (HSA binding), previously determined” value in data set [5] is 470000 M⁻¹. Also, the “effect of Q[10]-binding on HSA binding affinity” value in data set [5] was “decreased the affinity”. Further, the “amount of complex in serum after intravenous injection” value in [6] is “decreased very rapidly”.
Take `Cc1ccnc(-c2cc(CCCCCCCc3ccnc(-c4cc(C)ccn4)c3)ccn2)c1.Cc1cnc2c(ccc3c(C)c(C)cnc32)c1C.[Ru+2]` [α-Me4phen-7, cis-α-[Ru(Me4phen)(bb7)]^2+]: the IC50 in data set [1] (setting [10]) was over 400 µM; in [1] (setting [11]), over 400 µM; in data set [2] (setting [12]), 162 ± 14 µM; in data set [2] (setting [13]), 142 ± 8 µM; in [3] (setting [14]), over 400 µM; in data set [3] (setting [15]), 168 ± 5 µM. The “fold decrease in toxicity by Q[10]-encapsulation” value in data set [7] (based on 48-h incubation toxicity to BHK and Hep-G2 cells) is on record as 2–3 fold. The “fold less toxic to eukaryotic cells than α-phen-12” value in data set [7] (from IC50 values) is recorded as 2–5 fold. Moreover, in data set [8], the MIC was 1 to 10 µM. Moreover, the “fold lower antimicrobial activity to Gram-negative bacteria than Rubb12” value in data set [8] (ref Sun et al.) is “≈ 2 fold”. The “fold higher HSA binding affinity on Q[10]-encapsulation” value in [4] (Q[10]-encapsulated vs free) is given as 3–4 fold. Also, in data set [4], the “Kapp (apparent HSA binding constant)” value is given as 4.6 ± 0.90 × 10^5 (M)^−1. Moreover, the “binding number n for HSA binding” value in data set [4] is listed as 1.14. In addition, the “fold tighter HSA binding than α-phen-12 and α-Me2phen-7” value in data set [4] (from Kapp) is on record as “approximately 10 fold”. In addition, the “level of cellular accumulation, free vs Q[10]-encapsulated (luminescence intensity per cell)” value in the data set with BHK cells (BHK cells, […] μM, 1-h incubation) is “no difference”. Moreover, the “nuclear localization in BHK cells” value with BHK cells (preliminary confocal microscopy) is “did not localize in the nucleus”. The “log P” value in data set [9] was −1.33.
For `Cc1ccnc(-c2cc(CCCCCCCc3ccnc(-c4cc(C)ccn4)c3)ccn2)c1.O=[N+]([O-])c1cc2cccnc2c2ncccc12.[Ru+2]` [α-NO2phen-7, cis-α-[Ru(NO2phen)(bb7)]^2+], the IC50 in [1] (setting [10]) is 121 ± 18 µM; in [1] (setting [11]) it was 126 ± 6 µM; in data set [2] (setting [12]) it was 141 ± 29 µM; in data set [2] (setting [13]), 99 ± 29 µM; in data set [3] (setting [14]), over 400 µM; in [3] (setting [15]) it was over 400 µM. For the same molecule, in data set [4], the “Kapp (apparent HSA binding constant)” value is listed as 23.5 ± 4.9 × 10^5 (M)^−1. Moreover, the “binding number n for HSA binding” value in [4] is 1.27. Besides, the “log P” value in [9] was −1.58.
With `Cc1ccnc(-c2cc(CCCCCCCc3ccnc(-c4cc(C)ccn4)c3)ccn2)c1.[Ru+2].c1cnc2c(c1)ccc1cccnc12` [α-phen-7, cis-α-[Ru(phen)(bb7)]^2+], the IC50 was over 400 µM in [1] (setting [10]); 219 ± 43 µM in data set [1] (setting [11]); 319 ± 26 µM in data set [2] (setting [12]); 312 ± 15 µM in [2] (setting [13]); over 400 µM in [3] (setting [14]); 250 ± 42 µM in data set [3] (setting [15]). For the same molecule, the “Kapp (apparent HSA binding constant)” value in data set [4] is given as 0.10 ± 0.00 × 10^5 (M)^−1. Besides, the “binding number n for HSA binding” value in [4] stood at 0.80.
As to `Cc1ccnc(-c2cc(CCCCCCCCCCCCc3ccnc(-c4cc(C)ccn4)c3)ccn2)c1.[Ru+2].c1cnc2c(c1)ccc1cccnc12` [α-phen-12, cis-α-[Ru(phen)(bb12)]^2+], the IC50 in data set [1] (setting [10]) came to 227 ± 22 µM; in [1] (setting [11]), 177 ± 17 µM; in data set [2] (setting [12]), 94 ± 13 µM; in data set [2] (setting [13]) it was 19 ± 3 µM; in [3] (setting [14]), 92 ± 26 µM; in data set [3] (setting [15]), 85 ± 16 µM. In addition, the “fold more toxic than α-Me4phen-7” value in data set [7] (eukaryotic cells, from IC50 values) is listed as 2–5 fold. Further, the MIC in data set [8] was 1 to 10 µM. For the same molecule, in [4], the “Kapp (apparent HSA binding constant)” value is 0.43 ± 0.17 × 10^5 (M)^−1. Further, the “binding number n for HSA binding” value in data set [4] is 0.95. In data set [9], the “log P” value is recorded as −0.9.
Regarding “cis-α-[Ru(Me2phen)(bb7)]^2+ [α-Me2phen-7]”, the IC50 is over 400 µM in data set [1] (setting [10]); over 400 µM in data set [1] (setting [11]); 358 ± 18 µM in data set [2] (setting [12]); 151 ± 30 µM in data set [2] (setting [13]); over 400 µM in data set [3] (setting [14]); 250 ± 46 µM in data set [3] (setting [15]). Moreover, the “Kapp (apparent HSA binding constant)” value in data set [4] is 0.29 ± 0.13 × 10^5 (M)^−1. The “binding number n for HSA binding” value in data set [4] was 0.91.

These data come from publication PMC6287197, “Eukaryotic Cell Toxicity and HSA Binding of [Ru(Me4phen)(bb7)]^2+ and the Effect of Encapsulation in Cucurbit[10]uril” (Frontiers in Chemistry, 2018).
